From BindingDB's records for doi:10.7270/Q2TX3CSC (Vanderbilt Screening Center for GPCRs, Ion Channels and …, 2009) come the findings set out here.

One assay concerns the target T1, Solute carrier family 12 member 5 (Homo sapiens, UniProt Q9H2X9).
T1 sequence (Q9H2X9 whole entry): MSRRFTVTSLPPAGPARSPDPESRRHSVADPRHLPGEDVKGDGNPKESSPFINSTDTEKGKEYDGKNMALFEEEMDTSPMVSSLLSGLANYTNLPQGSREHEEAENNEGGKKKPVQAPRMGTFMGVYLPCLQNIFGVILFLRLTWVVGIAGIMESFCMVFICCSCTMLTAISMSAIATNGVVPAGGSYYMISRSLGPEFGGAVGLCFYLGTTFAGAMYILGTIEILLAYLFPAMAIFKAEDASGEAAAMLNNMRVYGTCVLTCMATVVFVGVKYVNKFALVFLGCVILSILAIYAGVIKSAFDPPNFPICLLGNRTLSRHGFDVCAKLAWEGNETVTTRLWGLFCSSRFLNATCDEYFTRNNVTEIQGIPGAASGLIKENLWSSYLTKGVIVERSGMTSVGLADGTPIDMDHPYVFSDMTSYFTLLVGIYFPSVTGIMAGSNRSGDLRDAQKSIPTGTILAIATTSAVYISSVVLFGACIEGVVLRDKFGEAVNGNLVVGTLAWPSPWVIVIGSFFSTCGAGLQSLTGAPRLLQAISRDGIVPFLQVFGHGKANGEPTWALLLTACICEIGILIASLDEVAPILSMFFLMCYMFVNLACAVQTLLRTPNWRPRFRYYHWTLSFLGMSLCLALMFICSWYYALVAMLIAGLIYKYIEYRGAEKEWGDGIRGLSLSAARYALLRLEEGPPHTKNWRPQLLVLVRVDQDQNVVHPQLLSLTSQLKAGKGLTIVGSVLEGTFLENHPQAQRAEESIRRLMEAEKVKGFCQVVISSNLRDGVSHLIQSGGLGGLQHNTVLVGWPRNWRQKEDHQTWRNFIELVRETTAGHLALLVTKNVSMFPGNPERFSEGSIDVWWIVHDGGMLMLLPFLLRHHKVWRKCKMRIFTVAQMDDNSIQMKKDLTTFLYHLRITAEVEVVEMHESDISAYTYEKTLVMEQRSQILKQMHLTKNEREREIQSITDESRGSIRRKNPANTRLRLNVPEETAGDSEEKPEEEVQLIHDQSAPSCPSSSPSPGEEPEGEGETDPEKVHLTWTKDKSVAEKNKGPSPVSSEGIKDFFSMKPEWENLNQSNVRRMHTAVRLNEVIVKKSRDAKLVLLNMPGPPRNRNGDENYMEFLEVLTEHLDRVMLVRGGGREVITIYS
Briefly: concentration-response of KCC2 transport modulators – cell-based, HEK293 KCC2, FluoZin-2 fluorescence, dose response (AID 1736).
Conditions: not given
Broadly, the EC50 is the concentration that produces a half-maximal response. A high value points to a need for much substance. In the case of `CC(=O)NCC1CCCN(c2nc3nonc3nc2N(C)Cc2ccccc2)C1` (stereo not given) [MLS000731683], the midpoint of the response, the EC50, lay at 2.68 µM.

Consider `c1ccc(-c2nnc(Sc3ncnc4c3cnn4-c3ccccc3)[nH]2)cc1` [SMR000019566], for which the EC50 is 5.95 µM. On the same count and under the same terms, in the case of `C=CCn1c(Cc2cccs2)nnc1SCC(=O)c1ccc2ccccc2c1` [1-(2-naphthalenyl)-2-[[4-prop-2-enyl-5-(thiophen-2-ylmethyl)-1,2,4-triazol-3-yl]thio]ethanone] it was 4.42 µM; in that of `O=C(C1CCN(c2nc3ccc(Br)cc3s2)CC1)N1CCC2(CC1)OCCO2` [8-{[1-(6-bromo-1,3-benzothiazol-2-yl)piperidin-4-yl]carbonyl}-1,4-dioxa-8-azaspiro[4.5]decane], 14.3 µM. Still for that read-out and setting: in the case of `O=C(c1ccc(N2CCCCCC2)c([N+](=O)[O-])c1)N1CCc2ccccc21` [1-(4-azepan-1-yl-3-nitrobenzoyl)indoline] it was 0.373 µM. The same measure, in the same setting: the same measure for `N#Cc1nc(Cc2cccc3ccccc23)oc1N1CCOCC1` [5-(4-morpholinyl)-2-(1-naphthalenylmethyl)-4-oxazolecarbonitrile]: 1.32 µM.

As for `Sc1nnc(CCc2ccc(Cl)cc2)o1` [5-[2-(4-chlorophenyl)ethyl]-1,3,4-oxadiazole-2-thiol], the EC50 is 0.991 µM. For `COc1ccc(C(=O)N2CCCC(c3ccccc3)C2)cc1` (stereo not given) [(4-methoxyphenyl)-(3-phenyl-1-piperidinyl)methanone], the concentration giving a half-maximal response (EC50) turned out to be 7.32 µM. As to `O=C(NN=Cc1ccccn1)c1ccccc1O` [2-oxidanyl-N-(pyridin-2-ylmethylideneamino)benzamide], the response was half-maximal at 29.2 µM (EC50). As for `O=C(C1CCCN(S(=O)(=O)c2cccc3nonc23)C1)N1CCC(Cc2ccccc2)CC1` (stereo not given) [(1-benzofurazan-4-ylsulfonyl-3-piperidyl)-(4-benzylpiperidino)methanone], the concentration giving a half-maximal response (EC50) came to 3810 µM. Same read-out and setting: the same measure for `CCOc1[nH]n(-c2ccccc2)c(=O)c1C=Nc1ccc(F)cc1F` [(4E)-4-[[[2,4-bis(fluoranyl)phenyl]amino]methylidene]-5-ethoxy-2-phenyl-pyrazol-3-one]: 0.461 µM. As for `COc1ccc(S(=O)(=O)N(C)CC(=O)N2CCN(Cc3ccccc3)CC2)cc1C` [4-methoxy-N,3-dimethyl-N-[2-oxidanylidene-2-[4-(phenylmethyl)piperazin-1-yl]ethyl]benzenesulfonamide], the response was half-maximal at 1.49 µM (EC50).

In turn, `Cc1ccc2oc(-c3ccc(C)c(NC(=S)NC(=O)c4cccs4)c3)nc2c1` [1-[2-Methyl-5-(5-methyl-benzooxazol-2-yl)-phenyl]-3-(thiophene-2-carbonyl)-thiourea] returned an EC50 of 2.05 µM. Same read-out and setting: in the case of `O=C(NCCc1c[nH]c2ccccc12)c1cc(S(=O)(=O)N2CCCCC2)ccc1N1CCOCC1` [N-[2-(1H-indol-3-yl)ethyl]-2-morpholin-4-yl-5-piperidin-1-ylsulfonylbenzamide] it was 208 µM; in that of `NC(=S)NN=C1C(=O)N(Cc2ccc(F)cc2)c2ccccc21` [1-[(Z)-[1-[(4-fluorophenyl)methyl]-2-oxidanylidene-indol-3-ylidene]amino]thiourea], 144 µM; in that of `COc1cc(CC(C)N)c(OC)cc1I` (stereo not given) [[125I]2,5-dimethoxy-4-iodoamphetamine], 290 µM.

`O=C(CSc1nnc(C2CC2)n1Cc1ccccc1)c1cc2ccccc2o1` [1-(1-benzofuran-2-yl)-2-[(4-benzyl-5-cyclopropyl-1,2,4-triazol-3-yl)sulfanyl]ethanone]: the EC50 is 21.2 µM. With `CCCC1=NN2C(=N)/C(=C\c3cc(C)n(-c4cc(C)cc(C)c4)c3C)C(=O)N=C2S1` [MLS000588586], the response was half-maximal at 6.75 µM (EC50).

Consider `c1ccc(-c2csc(N=NCc3ccco3)n2)cc1` [(2-furfurylideneamino)-(4-phenylthiazol-2-yl)amine], for which the EC50 came out at 15 µM. `O=[N+]([O-])c1ccccc1C=C[CH+][N-]n1c(-c2ccc(Cl)cc2)n[nH]c1=S` [MLS000555506]: a half-maximal response (EC50) required 23.6 µM. Still for that read-out and setting: in the case of `O=C(Nc1ccc2oc(-c3ccccc3F)nc2c1)c1ccco1` [MLS000709180] it was 66.5 µM; in that of `Cc1ccc(Nc2nnc(SCC(=O)c3ccc(Br)s3)s2)c(C)c1` [1-(5-bromanylthiophen-2-yl)-2-[[5-[(2,4-dimethylphenyl)amino]-1,3,4-thiadiazol-2-yl]sulfanyl]ethanone], 2.31 µM. `O=S1(=O)N=C(N2CCN(Cc3ccccc3)CC2)c2ccccc21` [3-(4-Benzyl-piperazin-1-yl)-benzo[d]isothiazole 1,1-dioxide]: a half-maximal response (EC50) required 6.74 µM.

On to `O=C(NNc1nc(-c2ccccc2)cs1)c1ccccc1` [MLS000547345], for which the EC50 was 0.024 µM. Still for that read-out and setting: in the case of `Cc1ccc(/C=C2\SC(=S)N(/N=C/C3C=C([N+](=O)[O-])C=CC3=O)C2=O)o1` (stereo not given) [(5Z)-5-[(5-methylfuran-2-yl)methylidene]-3-[[(E)-(3-nitro-6-oxocyclohexa-2,4-dien-1-ylidene)methyl]amino]-2-sulfanylidene-1,3-thiazolidin-4-one] it was 11.8 µM; in that of `O=C(COC(=O)c1cc([N+](=O)[O-])ccc1NCCO)c1ccccc1` [2-(2-hydroxyethylamino)-5-nitro-benzoic acid phenacyl ester], 9.16 µM; in that of `O=C(O)CC/C(=C\c1ccccc1[N+](=O)[O-])c1nc2ccccc2s1` [(E)-4-(1,3-benzothiazol-2-yl)-5-(2-nitrophenyl)-4-pentenoic acid], 500 µM. Same read-out and setting: in the case of `O=C(Nc1ccc(Cc2ccncc2)cc1)c1cccc([N+](=O)[O-])c1` [3-Nitro-N-(4-pyridin-4-ylmethyl-phenyl)-benzamide] it was 15.3 µM. Take `CCCCNc1cc(C(=O)O)cc(S(N)(=O)=O)c1Oc1ccccc1` [Fordiuran]: the 50% effective concentration (EC50) was found to be 4.69e-05 µM.

On to `O=C(CSc1ccccc1C(=O)NCc1ccccc1)NC12CC3CC(CC(C3)C1)C2`, for which the EC50 came out at 9.17 µM.

As for `Cn1c(C(=O)NCCN2CCN(c3ccccc3F)CC2)cc2c(=O)n(C)c3ccccc3c21` [MLS000118132], the EC50 came out at 3.19 µM. On the same count and under the same terms, in the case of `O=C(CC(Cc1ccccc1)c1ccco1)NC1CCCCC1` (stereo not given) [MLS000556612] it was 212 µM; in that of `O=C(O)c1cc([N+](=O)[O-])ccc1NCc1ccccc1` [2-(benzylamino)-5-nitro-benzoic acid], 4.19 µM. Take `O=C(Cn1cnc2c(nnn2-c2ccccc2)c1=O)NCCc1ccccc1` [2-(7-keto-3-phenyl-triazolo[4,5-d]pyrimidin-6-yl)-N-phenethyl-acetamide]: the response was half-maximal at 27.5 µM (EC50).

Staying with this assay, now noted: inactive by the depositor's call.
In turn, `COc1ccc(OC)c2sc(NNC(=O)COc3ccccc3)nc12` [MLS000419249] yielded an EC50 of 2.62 µM. `Cc1nc(CC(=O)Nc2nc(-c3ccccc3)cs2)cs1` [2-(2-methyl-1,3-thiazol-4-yl)-N-(4-phenyl-1,3-thiazol-2-yl)acetamide] came in with an EC50 of 1.81 µM. Still for that read-out and setting: the same measure for `O=C(O)CC/C(=C\c1cccc(NC(=O)c2ccccc2Cl)c1)c1nc2ccccc2s1` [SMR000371789]: 4.76 µM; for `Cn1cc(SCC(=O)N2CCN(c3ccccc3)CC2)c2ccccc21` [2-(1-methylindol-3-yl)sulfanyl-1-(4-phenylpiperazin-1-yl)ethanone]: 78.4 µM; for `CC(/C=C1\SC(=S)N(C(C(=O)O)C(C)C)C1=O)=C\c1ccccc1` (stereo not given) [MLS000713304]: 2.68 µM. Same read-out and setting: in the case of `O=C(COc1ccc2ccccc2c1)NN=Cc1ccccn1` [2-(2-naphthalenyloxy)-N-(2-pyridinylmethylideneamino)acetamide] it was 330 µM.
